According to US8697641B2, “4-amino-4-oxobutanoyl peptide cyclic analogues, inhibitors of viral replication” (Achillion Pharmaceuticals, Inc., priority 2008, dated 2014):

System: Hepatitis C replicon
Experiment: HCV replicon assay (NPT ELISA readout) in Huh-7 replicon-containing cells
Assay type: cell-based, Hepatitis C virus
Settings: Hepatitis C virus, 72 h; HCV replicon in Huh-7 cells, three days incubation
How it was run: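 Huh-7 cells carrying a neo-containing HCV subgenomic replicon (NS3-NS5B) were plated overnight, then exposed to compound (generally 6 concentrations, 10 to 0.03 μM) for three days at 37 °C. Replication was read as NPT level by captured ELISA; interferon alpha served as positive control.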

Compound	EC50 [nM]
COc1ccc2c(O[C@@H]3C[C@H]4C(=O)N[C@]5(C(=O)NS(=O)(=O)C6CC6)CC5/C=C\CCCCC[C@H](CC(=O)N5CCC(C(F)(F)F)CC5)C(=O)N4C3)cc(-c3cccnc3)nc2c1C (stereo partly drawn) [Compound 131, (2R,6R,14aR,16aS,Z)-N-(cyclopropylsulfonyl)-2-(7-methoxy-8-methyl-2-(pyridin-3-yl)quinolin-4-yloxy)-5,16-dioxo-6-(2-oxo-2-(4-(trifluoromethyl)piperidin-1-yl)ethyl)-1,2,3,5,6,7,8,9,10,11, 13a,14,14a,15,16,16a-hexadecahydrocyclopropa [e]pyrrolo[1,2-a][1,4] diazacyclopentadecine-14a-carboxamide]	< 1000
COc1ccc2c(O[C@@H]3C[C@H]4C(=O)N[C@]5(C(=O)NS(=O)(=O)C6CC6)C[C@H]5/C=C\CCCCC[C@H](CC(=O)N5CCC(C(F)(F)F)CC5)C(=O)N4C3)nc(-c3ccccn3)cc2c1Cl [Compound 132, (2R,6R,14aR,16aS,Z)-2-(5-chloro-6-methoxy-3-(pyridin-2-yl)isoquinolin-1-yloxy)-N-(cyclopropylsulfonyl)-5,16-dioxo-6-(2-oxo-2-(4-(trifluoromethyl)piperidin-1-yl)ethyl)-1,2,3,5,6,7,8,9,10,11, 13a,14,14a,15,16,16a-hexadecahydrocyclopropa [e]pyrrolo[1,2-a][1,4] diazacyclopentadecine-14a-carboxamide]	< 1000
COc1ccc2c(O[C@@H]3C[C@H]4C(=O)N[C@]5(C(=O)NS(=O)(=O)C6CC6)C[C@H]5/C=C\CCCCC[C@H](CC(=O)N5CCCC(F)(F)C5)C(=O)N4C3)cc(-c3csc(C(C)C)n3)nc2c1C [Compound 133, (2R,6R,14aR,16aS,Z)-N-(cyclopropylsulfonyl)-6-(2-(3,3-difluoropiperidin-1-yl)-2-oxoethyl)-2-(2-(2-isopropylthiazol-4-yl)-7-methoxy-8-methylquinolin-4-yloxy)-5,16-dioxo-1,2,3,5,6,7,8,9,10,11, 13a,14,14a,15,16,16a-hexadecahydrocyclopropa [e]pyrrolo[1,2-a][1,4] diazacyclopentadecine-14a-carboxamide]	< 1000
